Laboratory results published in article PMC7044277 (Nature Communications, 2020).
Values joined by “and” are separate entries in the source; they are usually repeats but may differ in a detail not shown here. Equal entries are not always repeated.

Assays:
Assay type in all cases: cell-based
[1] = molecular target: T1, 320 non-olfactory GPCRs (Homo sapiens, UniProt O00574)
T1 construct: expressed in transfected cells; host or cells: HTLA cells

[2] = molecular target: T2, 320 non-olfactory GPCRs (Homo sapiens, UniProt P35348)
T2 construct: expressed in transfected cells; host or cells: HTLA cells
T2 sequence (P35348 whole entry): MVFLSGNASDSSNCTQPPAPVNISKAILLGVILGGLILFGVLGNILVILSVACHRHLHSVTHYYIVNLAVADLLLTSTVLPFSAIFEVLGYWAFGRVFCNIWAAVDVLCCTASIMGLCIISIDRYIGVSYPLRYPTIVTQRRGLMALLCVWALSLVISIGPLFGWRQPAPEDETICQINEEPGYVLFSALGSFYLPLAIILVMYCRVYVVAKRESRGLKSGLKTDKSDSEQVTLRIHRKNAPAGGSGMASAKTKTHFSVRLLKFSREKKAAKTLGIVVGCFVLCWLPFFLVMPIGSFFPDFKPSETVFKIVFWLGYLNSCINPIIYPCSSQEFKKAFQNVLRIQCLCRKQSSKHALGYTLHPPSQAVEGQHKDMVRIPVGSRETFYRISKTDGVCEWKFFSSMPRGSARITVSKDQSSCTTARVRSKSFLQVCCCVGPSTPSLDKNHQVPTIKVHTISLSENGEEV

[3] = molecular target: T3, 320 non-olfactory GPCRs (Homo sapiens, UniProt Q15077); details: receptor P2RY6; replicate values, Fig_4g
T3 construct: expressed in transfected cells; host or cells: HTLA cells
T3 sequence (Q15077 whole entry): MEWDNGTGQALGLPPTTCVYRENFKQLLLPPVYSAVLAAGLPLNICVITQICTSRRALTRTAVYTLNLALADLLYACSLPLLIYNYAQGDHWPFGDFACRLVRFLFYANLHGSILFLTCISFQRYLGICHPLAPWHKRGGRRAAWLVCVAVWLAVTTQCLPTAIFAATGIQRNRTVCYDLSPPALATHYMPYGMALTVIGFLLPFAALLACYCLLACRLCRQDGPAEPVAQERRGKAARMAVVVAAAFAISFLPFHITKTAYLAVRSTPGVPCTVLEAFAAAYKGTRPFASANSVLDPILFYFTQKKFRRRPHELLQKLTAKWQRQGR

[4] = molecular target: T4, 320 non-olfactory GPCRs (Homo sapiens, UniProt Q9GZQ6); details: receptor NPFF1; replicate values, Fig_4g
T4 construct: expressed in transfected cells; host or cells: HTLA cells
T4 sequence (Q9GZQ6 whole entry): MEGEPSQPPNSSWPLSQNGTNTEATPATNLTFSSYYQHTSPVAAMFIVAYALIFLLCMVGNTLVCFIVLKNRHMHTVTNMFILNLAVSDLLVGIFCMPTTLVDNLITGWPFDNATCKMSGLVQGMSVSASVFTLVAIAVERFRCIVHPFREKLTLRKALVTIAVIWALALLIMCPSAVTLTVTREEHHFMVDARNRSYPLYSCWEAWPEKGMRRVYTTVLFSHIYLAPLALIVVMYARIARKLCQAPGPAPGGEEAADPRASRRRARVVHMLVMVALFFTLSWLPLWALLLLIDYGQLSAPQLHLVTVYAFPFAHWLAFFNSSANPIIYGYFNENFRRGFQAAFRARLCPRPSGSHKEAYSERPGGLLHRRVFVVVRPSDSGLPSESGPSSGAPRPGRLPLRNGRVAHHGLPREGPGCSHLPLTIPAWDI
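For Fold of Basal in this document: compound tested at 1 µM final concentration.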
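For GPCRome agonism screen response in this document: fold over basal response of each receptor without drug.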

T1 sequence (O00574 whole entry): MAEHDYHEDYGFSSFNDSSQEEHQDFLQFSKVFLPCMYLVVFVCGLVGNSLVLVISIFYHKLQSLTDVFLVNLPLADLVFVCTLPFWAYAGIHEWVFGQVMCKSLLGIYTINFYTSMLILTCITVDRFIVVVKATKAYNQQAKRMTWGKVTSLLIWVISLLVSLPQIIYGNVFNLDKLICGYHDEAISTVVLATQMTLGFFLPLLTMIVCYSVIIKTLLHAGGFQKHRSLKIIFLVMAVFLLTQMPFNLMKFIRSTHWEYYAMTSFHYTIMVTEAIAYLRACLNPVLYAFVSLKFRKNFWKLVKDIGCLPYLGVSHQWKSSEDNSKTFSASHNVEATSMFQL

CCOc1cccc2cc(C(C)NCC3(O)CCCCC3)oc12 (stereo not shown) [O4LE6]
Fold of Basal [1]: 0.9849 and 0.6404 and 1.204 and 0.796 | Fold of Basal [2]: 1.536 and 0.8942 and 1.241 and 1.268 | GPCRome agonism screen response [3]: 0.88 and 0.9723 and 0.9546 and 1.27 | GPCRome agonism screen response [4]: 1.802 and 0.79 and 0.7669 and 0.6228
